Reference: the Kinase Knowledgebase extract (Sharma et al. 2016)

Each molecule was assayed against EGFR (UniProt P00533) (assay: Inhibition of EGFR Kinase Activity).
EGFR, sequence (P00533 whole entry, looked up): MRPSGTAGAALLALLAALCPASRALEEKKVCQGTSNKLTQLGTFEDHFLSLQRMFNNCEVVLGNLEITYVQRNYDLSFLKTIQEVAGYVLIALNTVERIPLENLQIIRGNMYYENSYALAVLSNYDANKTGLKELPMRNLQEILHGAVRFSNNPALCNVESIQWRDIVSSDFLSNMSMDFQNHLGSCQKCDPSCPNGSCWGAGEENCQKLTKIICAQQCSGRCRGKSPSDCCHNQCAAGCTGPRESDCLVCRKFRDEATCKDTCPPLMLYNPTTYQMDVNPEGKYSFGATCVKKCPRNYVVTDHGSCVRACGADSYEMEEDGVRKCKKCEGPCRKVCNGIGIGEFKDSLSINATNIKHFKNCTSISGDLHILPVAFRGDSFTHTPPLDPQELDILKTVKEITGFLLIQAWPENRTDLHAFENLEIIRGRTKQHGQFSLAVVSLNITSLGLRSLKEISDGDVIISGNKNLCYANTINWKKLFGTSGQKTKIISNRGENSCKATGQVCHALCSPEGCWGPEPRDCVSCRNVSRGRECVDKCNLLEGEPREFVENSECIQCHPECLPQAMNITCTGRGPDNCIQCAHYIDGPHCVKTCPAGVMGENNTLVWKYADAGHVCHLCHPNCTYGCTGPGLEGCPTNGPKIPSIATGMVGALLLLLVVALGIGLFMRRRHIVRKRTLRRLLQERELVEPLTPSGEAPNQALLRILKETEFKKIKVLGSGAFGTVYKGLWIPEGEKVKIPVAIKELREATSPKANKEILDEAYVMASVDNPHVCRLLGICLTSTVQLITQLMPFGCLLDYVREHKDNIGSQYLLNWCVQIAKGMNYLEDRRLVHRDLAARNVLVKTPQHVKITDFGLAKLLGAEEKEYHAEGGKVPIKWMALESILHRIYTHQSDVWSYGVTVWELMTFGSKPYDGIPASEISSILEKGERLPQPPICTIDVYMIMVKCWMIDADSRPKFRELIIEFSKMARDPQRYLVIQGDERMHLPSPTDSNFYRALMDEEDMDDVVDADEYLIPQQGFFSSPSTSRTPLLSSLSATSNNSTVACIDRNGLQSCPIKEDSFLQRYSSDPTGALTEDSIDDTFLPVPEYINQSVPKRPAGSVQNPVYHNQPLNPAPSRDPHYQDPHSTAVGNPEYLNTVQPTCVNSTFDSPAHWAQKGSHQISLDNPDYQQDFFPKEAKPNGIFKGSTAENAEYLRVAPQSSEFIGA

IC50, < 10 µM:
COc1ccc(N2C(=O)N(c3ccccc3)c3nc(Nc4ccccc4)ncc3C2C)c(F)c1 (configuration not stated)
COc1ccc(N2C(=O)N(c3cccc(C#N)c3)c3nc(Nc4ccccc4)ncc3C2C)c(F)c1 (configuration not stated)
COc1ccc(Cl)c(N2C(=O)N(c3ccccc3)c3nc(Nc4ccccc4)ncc3C2C)c1 (configuration not stated)
COc1ccc(N2C(=O)N(c3cccc(C(N)=O)c3)c3nc(Nc4ccccc4)ncc3C2C)c(F)c1 (configuration not stated)
COc1ccc(N2C(=O)N(c3cccc(C#N)c3)c3nc(Nc4ccccc4)ncc3C2C)cc1 (configuration not stated)
COc1ccc(N2C(=O)N(c3ccccc3)c3nc(Nc4ccccc4)ncc3[C@@H]2C)cc1
COc1ccc(N2C(=O)N([C@H]3CC[C@H](O)CC3)c3nc(Nc4ccccc4)ncc3C2C)cc1 (some centres not stated)
COc1ccc(N2C(=O)N(c3ccccc3)c3nc(Nc4ccccc4)ncc3C2C)cc1 (configuration not stated)
COc1ccc(N2C(=O)N([C@H](C)CO)c3nc(Nc4ccccc4)ncc3[C@H]2C)cc1
COc1ccc(N2C(=O)N(c3ccccc3)c3nc(Nc4ccccc4)ncc3[C@H]2C)cc1
CCC1c2cnc(Nc3ccccc3)nc2N(c2ccccc2)C(=O)N1c1ccc(OC)cc1 (configuration not stated)
COc1ccc(N2C(=O)N([C@@H](C)c3ccccc3)c3nc(Nc4ccccc4)ncc3C2C)cc1 (some centres not stated)
COc1ccc(N2C(=O)N(c3ccc(OC)cc3)C(C)c3cnc(Nc4ccccc4)nc32)cc1 (configuration not stated)
COc1ccc(N2C(=O)N(c3ccccc3)c3nc(N(C(C)=O)c4ccccc4)ncc3C2C)cc1 (configuration not stated)
COc1ccc(N2C(=O)N(c3ccccc3)c3nc(Nc4ccccc4)ncc3C2C(C)C)cc1 (configuration not stated)
COc1ccc(N2C(=O)N([C@H](C)CO)c3nc(Nc4ccccc4)ncc3[C@@H]2C)cc1
COc1ccc(N2C(=O)N(c3cccc(C(N)=O)c3)c3nc(Nc4ccccc4)ncc3C2C)cc1 (configuration not stated)
